Measurements as given in EP0837085A1, “POLYCARBONATE-BASE POLYMER, PRODUCTION PROCESS, RESIN COATING FLUID PREPARED THEREFROM, AND ELECTROPHOTOGRAPHIC PHOTORECEPTOR PREPARED THEREFROM” (IDEMITSU KOSAN COMPANY LIMITED, priority 1994, dated 1996).

Key:
[1] = pKa of the starting alcohol, in water at 25°C
Procedure: (§1) An ordinary acid, which is represented by HA, in water is in an equilibrium state as shown below. HA + H2 O ⇄ H3 O^+ (+ A)^- [formula] Equilibrium constant Keq is calculated as follows. Keq =([H3 O^+ (] [A)^- ])/([HA] [H2 O]) [formula] wherein [ ] represents the concentration of each chemical species.
(§2) In ordinary diluted solutions, the concentration of water [H2O] hardly changes and is constantly 55.5M, and the equilibrium constant Keq can be converted into another equation, to show the following acidity constant Ka. Ka =(([A)^- ] [H3 O^+ ])/([HA]) [formula]

Procedure for physchem: as §1, §2

OC(C(F)(F)F)C(F)(F)F
pKa [1]: 5

OCCCCCO [1,5-pentanediol, reference compound]
pKa (physchem; water): 17

OCC(F)(F)C(F)(F)C(F)(F)C(F)(F)CO [1H,1H,6H,6H-perfluoro-1,6-hexanediol]
pKa [1]: 11

OCC(F)(F)F [2,2,2-trifluoroethanol]
pKa (physchem; water): 11

OCC(F)(F)C(F)(F)C(F)(F)CO [2,2,3,3,4,4-hexafluoro-1,5-pentanediol]
pKa (physchem): 11
